{"source": "patent US8618101B2", "about": "“N-((1R,2S,5R)-5-(tert-butylamino)-2-((S)-3-(7-tert-butylpyrazolo[1,5-a][1,3,5]triazin-4-ylamino)-2-oxopyrrolidin-1-yl)cyclohexyl)acetamide, a dual modulator of chemokine receptor activity, crystalline forms and processes” (Bristol-Myers Squibb Company, priority 2009, dated 2013)", "key": {"[1]": {"biological_target": "T1, human CCR-2 (Homo sapiens, UniProt P41597)", "T1 sequence (P41597 1-360 isoform P41597-2)": "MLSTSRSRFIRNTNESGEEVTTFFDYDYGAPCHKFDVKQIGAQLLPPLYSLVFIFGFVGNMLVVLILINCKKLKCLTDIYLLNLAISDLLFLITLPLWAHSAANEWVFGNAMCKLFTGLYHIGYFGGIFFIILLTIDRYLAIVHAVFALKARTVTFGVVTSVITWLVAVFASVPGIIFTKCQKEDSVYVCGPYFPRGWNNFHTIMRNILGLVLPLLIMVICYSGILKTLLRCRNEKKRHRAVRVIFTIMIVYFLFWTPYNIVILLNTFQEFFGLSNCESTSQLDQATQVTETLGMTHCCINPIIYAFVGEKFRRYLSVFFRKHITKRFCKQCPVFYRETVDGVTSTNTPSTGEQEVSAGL", "assay": "Human CCR-2 binding assay with hPBMCs, 125I-human MCP-1 tracer", "set-up": "hPBMCs were isolated from human leukopak; host or cells: human peripheral blood mononuclear cells", "procedure": "See also: Yoshimura et al., J. Immunol., 145:292 (1990). […] This was followed by adding 25 μl of Microscint 20 into each well. The plate was sealed and counted on the Trilux for 1 minute. […] All conditions were tested in duplicate."}, "[2]": {"biological_target": "CCR-2 (Homo sapiens, UniProt P41597)", "sequence (P41597 whole entry)": "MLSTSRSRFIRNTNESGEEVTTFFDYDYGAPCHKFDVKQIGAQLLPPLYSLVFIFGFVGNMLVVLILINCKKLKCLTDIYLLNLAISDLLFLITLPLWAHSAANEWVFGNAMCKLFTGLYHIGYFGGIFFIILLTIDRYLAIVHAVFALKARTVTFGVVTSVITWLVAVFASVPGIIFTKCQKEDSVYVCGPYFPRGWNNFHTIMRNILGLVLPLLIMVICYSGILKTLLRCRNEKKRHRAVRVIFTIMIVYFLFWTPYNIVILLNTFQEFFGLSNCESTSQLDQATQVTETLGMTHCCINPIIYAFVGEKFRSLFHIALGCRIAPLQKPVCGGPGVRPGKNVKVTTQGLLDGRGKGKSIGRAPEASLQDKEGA", "assay": "In vivo receptor occupancy in blood of hCCR-2 KI mice (Gaddum equation)", "conditions": "for % Example 1 bound CCR-2 / % free CCR-2 / % mouse MCP-1 bound CCR-2: 48 h", "from_the_text": "The caveat for this estimation is that only CCR-2 and its major ligand MCP-1 were taken into consideration. The receptor occupancy of a ligand in the presence of a competitive inhibitor is defined by the Gaddum equation: […]\nSince Example 1 is a competitive inhibitor of MCP-1 binding to CCR-2, the amounts of both mouse MCP-1/CCR-2 receptor complex and Example 1/CCR-2 receptor complex can be determined using the serum levels of both mouse MCP-1 and protein-unbound Example 1 in plasma. […] The fraction of mouse MCP-1/CCR-2 receptor complexes is determined using the form of the equation described above. To determine the fraction of Example 1/CCR-2 complexes the equation is re-defined as:\n[formula] Finally, the amount of CCR-2 free is determined from: [CCR-2]total=[CCR-2]free+[mouse MCP-1/CCR-2]+[Example 1/CCR-2]"}, "[3]": {"biological_target": "T2, hERG (Homo sapiens, UniProt Q12809)", "T2 construct": "expressed in transfected cells; host or cells: HEK293", "T2 sequence (Q12809 whole entry)": "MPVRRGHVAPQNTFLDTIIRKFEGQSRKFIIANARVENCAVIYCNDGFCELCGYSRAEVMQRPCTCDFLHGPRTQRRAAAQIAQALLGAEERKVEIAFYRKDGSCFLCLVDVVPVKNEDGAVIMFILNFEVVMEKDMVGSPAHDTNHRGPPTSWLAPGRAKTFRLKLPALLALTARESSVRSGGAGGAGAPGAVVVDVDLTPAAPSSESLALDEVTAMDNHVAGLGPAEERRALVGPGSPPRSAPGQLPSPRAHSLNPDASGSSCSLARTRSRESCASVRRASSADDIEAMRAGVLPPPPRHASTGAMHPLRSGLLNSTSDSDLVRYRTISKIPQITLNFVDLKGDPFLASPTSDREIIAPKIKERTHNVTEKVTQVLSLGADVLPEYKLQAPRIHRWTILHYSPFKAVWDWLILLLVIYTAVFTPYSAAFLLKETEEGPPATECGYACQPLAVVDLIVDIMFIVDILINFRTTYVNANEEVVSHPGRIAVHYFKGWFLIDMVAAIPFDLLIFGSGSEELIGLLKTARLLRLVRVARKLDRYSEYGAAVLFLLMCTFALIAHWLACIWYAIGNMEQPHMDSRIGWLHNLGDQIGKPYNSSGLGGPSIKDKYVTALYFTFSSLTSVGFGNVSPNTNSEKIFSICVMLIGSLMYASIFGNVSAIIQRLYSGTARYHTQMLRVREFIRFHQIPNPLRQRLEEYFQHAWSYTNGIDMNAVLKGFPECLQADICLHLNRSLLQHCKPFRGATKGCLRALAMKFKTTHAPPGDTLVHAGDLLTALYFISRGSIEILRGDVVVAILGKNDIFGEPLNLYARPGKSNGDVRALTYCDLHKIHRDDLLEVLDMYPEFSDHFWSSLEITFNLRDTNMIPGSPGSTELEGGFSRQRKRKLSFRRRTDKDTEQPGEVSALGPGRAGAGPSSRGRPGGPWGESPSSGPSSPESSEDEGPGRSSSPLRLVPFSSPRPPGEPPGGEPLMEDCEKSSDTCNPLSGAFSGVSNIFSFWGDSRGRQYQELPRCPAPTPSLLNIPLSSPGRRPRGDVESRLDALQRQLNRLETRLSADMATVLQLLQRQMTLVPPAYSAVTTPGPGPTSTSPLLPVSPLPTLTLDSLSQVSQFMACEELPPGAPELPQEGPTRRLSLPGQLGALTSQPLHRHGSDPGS", "assay": "hERG Flux (Tl+ flux, FLIPR)", "format": "cell-based", "conditions": "HEK293 cells expressing hERG", "procedure": "HEK293 cells stably-expressing hERG channels were grown (37° C., 5% CO2) in Dulbecco's Modified Eagle's Media supplemented with 10% Sigma fetal bovine serum, non-essential amino acids, 2 mM L-glutamine and 500 μg/ml G418, at incubator. Cell dissociation buffer was used to extract the cells from flasks, which were then plated into 384-well CORNING® poly-D-lysine coated black/clear plates at a density of 2×10^4 cells per well (20 μl) in 10% serum media, and incubated for 15-24 hours at 37° C. in a 5% CO2 incubator until a confluent monolayer of cells was obtained. […]\nThe test compound was diluted to 10 mM DMSO in 60 μl. […] Assay-ready plates were generated by stamping 2.5 μl from the DMSO serially diluted plate, which was prepared on the Velocity 11 BIOCEL®. Aqueous plates were created by adding 48 μl of EP buffer and then were diluted 30-45 minutes before the assay was read on the FLIPR®. […] Assay-ready aqueous plates were prepared and diluted on a CyBio liquid handler.\nCells loaded with dye were read on the FLIPR®384 (Molecular Devices, Sunnyvale, Calif.), which excites the dye using the 488 nm line of an argon laser. […]\nThe dynamic range of the assay was determined from blanks and totals wells. […] Data were analyzed by fitting maximum amplitudes of change in fluorescence for Tl^+ flux for a given condition of test compound."}, "[4]": {"conditions": "200 mg/kg (different study), oral BID"}}, "data": [{"smiles": "CC(=O)N[C@@H]1C[C@H](NC(C)(C)C)CC[C@@H]1N1CC[C@H](Nc2ncnc3cc(C(C)(C)C)nn23)C1=O", "note": "[Example 1, N-((1R,2 S,5R)-5-(tert-Butylamino)-2-((S)-3-(7-tert-butylpyrazolo[1,5-a][1,3,5]triazin-4-ylamino)-2-oxopyrrolidin-1-yl)cyclohexyl)acetamide]", "values": [{"measurement": "Ki", "setting": "[1]; average, read-out: average Ki for binding to hCCR-2", "value": 2, "unit": "nM"}, {"measurement": "IC50", "setting": "[1]; hPBMCs, 125I-human MCP-1", "value": "6.2 ± 2.7", "unit": "nM"}, {"measurement": "% Example 1 bound CCR-2", "setting": "[2]; 10 mg/kg oral BID", "value": 48.15, "unit": "%"}, {"measurement": "% free CCR-2", "setting": "[2]; 10 mg/kg oral BID", "value": 50.68, "unit": "%"}, {"measurement": "% mouse MCP-1 bound CCR-2", "setting": "[2]; 10 mg/kg oral BID", "value": 1.17, "unit": "%"}, {"measurement": "% Example 1 bound CCR-2", "setting": "[2]; 50 mg/kg oral BID", "value": 88.74, "unit": "%"}, {"measurement": "% free CCR-2", "setting": "[2]; 50 mg/kg oral BID", "value": 10.69, "unit": "%"}, {"measurement": "% mouse MCP-1 bound CCR-2", "setting": "[2]; 50 mg/kg oral BID", "value": 0.56, "unit": "%"}, {"measurement": "% Example 1 bound CCR-2", "setting": "[2]; 160 mg/kg oral BID", "value": 96.72, "unit": "%"}, {"measurement": "% free CCR-2", "setting": "[2]; 160 mg/kg oral BID", "value": 3.12, "unit": "%"}, {"measurement": "% mouse MCP-1 bound CCR-2", "setting": "[2]; 160 mg/kg oral BID", "value": 0.16, "unit": "%"}, {"measurement": "% Example 1 bound CCR-2", "setting": "[2]; [4]", "value": 98.45, "unit": "%"}, {"measurement": "% free CCR-2", "setting": "[2]; [4]", "value": 1.44, "unit": "%"}, {"measurement": "% mouse MCP-1 bound CCR-2", "setting": "[2]; [4]", "value": 0.11, "unit": "%"}, {"measurement": "CCR-2 occupancy at maximal inhibition of monocyte/macrophage infiltration", "setting": "[2]; hCCR-2 KI mouse TG peritonitis", "value": 98.5, "unit": "%"}, {"measurement": "IC50", "setting": "[3]", "value": "> 80000", "unit": "nM"}]}]}
